Experimental data reported in the Kinase Knowledgebase extract (Sharma et al. 2016).
“And” between values parts separate entries of the source, which are not always exact repeats. Equal values may be shown once.

Key:
PIK3CB (Human) = PIK3CB (Human) (UniProt P42338); test: Inhibition of PIK3CB Kinase (ATP Loss) Activity
PIK3CA (human) [1] = target: PIK3CA (human) (UniProt P42336); test: Assessment of PIK3CA Kinase Activity in NZB5 Cells
PIK3CA (human) [2] = target: PIK3CA (human) (UniProt P42336); test: Assessment of PIK3CA Kinase Activity in NZOV9 Cells
EGFR (human) [3] = target: EGFR (human) (UniProt P00533); conditions: concentration not given here
Chain of EGFR (human) (P00533 whole entry, looked up): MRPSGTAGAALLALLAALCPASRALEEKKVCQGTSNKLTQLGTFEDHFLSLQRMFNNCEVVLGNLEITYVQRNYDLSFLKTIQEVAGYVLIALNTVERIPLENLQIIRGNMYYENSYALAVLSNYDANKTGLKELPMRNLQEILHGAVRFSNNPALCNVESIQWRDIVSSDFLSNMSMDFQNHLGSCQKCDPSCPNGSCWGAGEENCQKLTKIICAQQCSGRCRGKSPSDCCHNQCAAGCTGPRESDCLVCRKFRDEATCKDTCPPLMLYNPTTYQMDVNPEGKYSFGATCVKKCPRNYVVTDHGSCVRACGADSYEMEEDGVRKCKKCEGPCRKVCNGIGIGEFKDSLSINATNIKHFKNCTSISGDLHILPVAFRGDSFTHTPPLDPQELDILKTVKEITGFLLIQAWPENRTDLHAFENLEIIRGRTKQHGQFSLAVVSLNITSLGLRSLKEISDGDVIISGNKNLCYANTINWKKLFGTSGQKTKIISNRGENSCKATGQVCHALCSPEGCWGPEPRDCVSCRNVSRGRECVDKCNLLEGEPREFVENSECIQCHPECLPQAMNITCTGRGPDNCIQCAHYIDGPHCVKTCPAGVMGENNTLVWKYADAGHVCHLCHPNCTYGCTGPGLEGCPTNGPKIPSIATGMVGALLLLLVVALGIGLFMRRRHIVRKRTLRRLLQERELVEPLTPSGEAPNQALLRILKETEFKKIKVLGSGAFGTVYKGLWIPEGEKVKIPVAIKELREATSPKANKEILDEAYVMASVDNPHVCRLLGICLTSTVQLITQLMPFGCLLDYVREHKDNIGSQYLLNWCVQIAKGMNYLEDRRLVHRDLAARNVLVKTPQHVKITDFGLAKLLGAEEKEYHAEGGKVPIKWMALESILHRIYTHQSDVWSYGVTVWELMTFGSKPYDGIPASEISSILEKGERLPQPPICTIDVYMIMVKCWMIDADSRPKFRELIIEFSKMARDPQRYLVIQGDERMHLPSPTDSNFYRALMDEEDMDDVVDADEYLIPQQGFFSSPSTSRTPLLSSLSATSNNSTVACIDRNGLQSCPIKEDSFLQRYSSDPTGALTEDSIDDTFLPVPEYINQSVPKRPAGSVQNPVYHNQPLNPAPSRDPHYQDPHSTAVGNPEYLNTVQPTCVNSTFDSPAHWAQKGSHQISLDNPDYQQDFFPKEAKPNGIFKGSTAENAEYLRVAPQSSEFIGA

EGFR (human) [4] = target: EGFR (human) (UniProt P00533); conditions: a431
EGFR [5] = target: EGFR (UniProt P00533)
Chain of EGFR (P00533 whole entry, looked up): as above

PIK3CA (human) [6] = target: PIK3CA (human) (UniProt P42336); test: Antiproliferation of NZB5 Cell Line Using Thymidine Depletion Assay
PIK3CA (human) [7] = target: PIK3CA (human) (UniProt P42336); test: Antiproliferation of NZOV9 Cell Line Using Thymidine Depletion Assay
[8] = target: PIK3CB;PIK3CG;PIK3CD;PIK3CA (human) (UniProt P48736); test: Assessment of PIK3CA/PIK3CB/PIK3CD/PIK3CG Kinase Activity
[9] = target: PIK3CB;PIK3CD;PIK3CA (human) (UniProt O00329); test: Assessment of PI3K Kinase Activity
Chain of PIK3CB;PIK3CD;PIK3CA (human) (O00329 whole entry, looked up): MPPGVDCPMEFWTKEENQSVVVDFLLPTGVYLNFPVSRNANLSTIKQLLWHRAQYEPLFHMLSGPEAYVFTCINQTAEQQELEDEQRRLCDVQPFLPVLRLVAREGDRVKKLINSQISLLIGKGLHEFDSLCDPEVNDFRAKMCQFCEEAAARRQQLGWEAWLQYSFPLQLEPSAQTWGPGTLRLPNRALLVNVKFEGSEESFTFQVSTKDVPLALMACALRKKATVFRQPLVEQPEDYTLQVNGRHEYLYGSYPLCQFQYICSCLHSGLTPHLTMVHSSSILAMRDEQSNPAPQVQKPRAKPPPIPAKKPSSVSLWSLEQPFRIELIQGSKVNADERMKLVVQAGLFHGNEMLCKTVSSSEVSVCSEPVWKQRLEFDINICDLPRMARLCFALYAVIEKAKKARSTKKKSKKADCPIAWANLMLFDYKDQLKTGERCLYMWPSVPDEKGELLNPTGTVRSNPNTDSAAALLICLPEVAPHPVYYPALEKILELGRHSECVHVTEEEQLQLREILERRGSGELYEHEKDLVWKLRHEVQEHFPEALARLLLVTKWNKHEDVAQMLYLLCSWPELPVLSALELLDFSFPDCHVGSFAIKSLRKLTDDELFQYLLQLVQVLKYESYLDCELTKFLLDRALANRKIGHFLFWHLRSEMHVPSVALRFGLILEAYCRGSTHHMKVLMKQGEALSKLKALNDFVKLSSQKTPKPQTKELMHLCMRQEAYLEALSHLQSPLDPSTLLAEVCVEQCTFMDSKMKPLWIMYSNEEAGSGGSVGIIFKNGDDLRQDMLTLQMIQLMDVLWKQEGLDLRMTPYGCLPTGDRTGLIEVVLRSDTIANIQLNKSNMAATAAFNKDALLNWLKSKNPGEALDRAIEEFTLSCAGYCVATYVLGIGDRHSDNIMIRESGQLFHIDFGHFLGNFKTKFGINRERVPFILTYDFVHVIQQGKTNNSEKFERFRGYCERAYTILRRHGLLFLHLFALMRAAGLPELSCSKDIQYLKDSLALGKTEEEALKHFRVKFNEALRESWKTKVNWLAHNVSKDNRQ

EGFR (human) [10] = target: EGFR (human) (UniProt P00533)
EGFR (human) [11] = target: EGFR (human) (UniProt P00533); conditions: concentration not given here; remark: listed apart in the source
EGFR (human) [12] = target: EGFR (human) (UniProt P00533); remark: listed apart in the source
EGFR (human) [13] = target: EGFR (human) (UniProt P00533); conditions: a431; remark: listed apart in the source
EGFR (human) [14] = target: EGFR (human) (UniProt P00533); remark: listed apart in the source
EGFR [15] = target: EGFR (UniProt P00533); remark: listed apart in the source
PIK3CA (human) [16] = target: PIK3CA (human) (UniProt P42336); test: Inhibition of PIK3CA Kinase Activity
PIK3CA (human) [17] = target: PIK3CA (human) (UniProt P42336); test: Assesment of Cell Proliferation of IGROV-1 Cells Using SRB Assay
EGFR (human) [18] = target: EGFR (human) (UniProt P00533); conditions: a431; remark: listed apart in the source
EGFR (human) [19] = target: EGFR (human) (UniProt P00533); remark: listed apart in the source
EGFR (human) [20] = target: EGFR (human) (UniProt P00533); remark: listed apart in the source
EGFR (human) [21] = target: EGFR (human) (UniProt P00533); conditions: a431; remark: listed apart in the source
EGFR (human) [22] = target: EGFR (human) (UniProt P00533); remark: listed apart in the source
EGFR (murine) = EGFR (murine) (UniProt P00533); conditions: nih3t3
EGFR (Balb/c mice) = EGFR (Balb/c mice) (UniProt P00533)
[23] = target: PIK3CB;PIK3CG;PIK3CD;PIK3CA (human) (UniProt P48736); test: Antiproliferation of Anti-IgM stimulated Human B Cells by PI3K Inhibitors
EGFR [24] = target: EGFR (UniProt P00533); remark: listed apart in the source

Chain of PIK3CA (human) (P42336 whole entry, looked up): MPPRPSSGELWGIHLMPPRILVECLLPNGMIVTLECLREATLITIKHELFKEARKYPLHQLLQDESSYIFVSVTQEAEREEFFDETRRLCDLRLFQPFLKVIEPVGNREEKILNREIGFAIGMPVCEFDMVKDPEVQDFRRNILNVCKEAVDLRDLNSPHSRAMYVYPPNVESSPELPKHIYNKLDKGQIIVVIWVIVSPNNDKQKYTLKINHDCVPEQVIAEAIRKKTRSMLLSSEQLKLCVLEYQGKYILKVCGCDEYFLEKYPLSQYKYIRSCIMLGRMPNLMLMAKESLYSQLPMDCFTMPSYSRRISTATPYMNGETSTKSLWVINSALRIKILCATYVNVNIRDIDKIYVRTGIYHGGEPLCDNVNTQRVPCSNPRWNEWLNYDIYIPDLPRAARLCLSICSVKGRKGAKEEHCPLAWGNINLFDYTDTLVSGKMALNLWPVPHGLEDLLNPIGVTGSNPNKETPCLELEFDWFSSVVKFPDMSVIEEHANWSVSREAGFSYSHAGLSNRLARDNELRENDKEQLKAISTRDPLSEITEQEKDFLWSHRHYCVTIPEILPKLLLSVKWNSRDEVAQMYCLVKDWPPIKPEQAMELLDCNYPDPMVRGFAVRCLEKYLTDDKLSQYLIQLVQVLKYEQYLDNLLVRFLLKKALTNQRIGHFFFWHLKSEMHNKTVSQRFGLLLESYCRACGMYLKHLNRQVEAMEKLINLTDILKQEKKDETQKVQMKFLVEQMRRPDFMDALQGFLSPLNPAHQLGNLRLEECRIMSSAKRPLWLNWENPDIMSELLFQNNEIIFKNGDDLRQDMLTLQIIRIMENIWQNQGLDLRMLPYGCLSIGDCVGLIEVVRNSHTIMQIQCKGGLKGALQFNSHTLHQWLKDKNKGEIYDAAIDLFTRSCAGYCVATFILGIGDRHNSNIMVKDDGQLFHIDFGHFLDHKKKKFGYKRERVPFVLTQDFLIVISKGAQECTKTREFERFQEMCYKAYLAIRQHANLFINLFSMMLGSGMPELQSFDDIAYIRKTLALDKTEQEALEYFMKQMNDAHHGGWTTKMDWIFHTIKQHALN

CN(C)c1cc(-c2ccc3ncccc3c2)cnc1Cl
IC50 (PIK3CB (Human)): 40000 nM

CC(=NN(C)S(=O)(=O)c1cc([N+](=O)[O-])ccc1C)c1cnn2ccc(Br)cc12
IC50 (PIK3CA (human) [1]): > 20000 nM
IC50 (PIK3CA (human) [2]): > 20000 nM

Cc1ccc([N+](=O)[O-])cc1S(=O)(=O)N(C)N=Cc1cnn2ccc(O)cc12
IC50 (PIK3CA (human) [1]): > 20000 nM
IC50 (PIK3CA (human) [2]): > 20000 nM

COCCOc1cc2ncnc(NC3=CC(=O)C(OCc4cccc(OC)c4)=CC3=O)c2cc1OC
inhibition (EGFR (human) [3]): -13%

Nc1nc(Nc2ccc(Cl)cc2Br)c2cc(Cc3ccc(Cl)cc3Cl)[nH]c2n1
IC50 (EGFR (human) [4]): 16200 nM

CN(C)CC(=O)N1CCC(Oc2ccc3ncnc(Nc4ccc(OCc5ccccn5)c(Cl)c4)c3c2)CC1
IC50 (EGFR [5]): 39 nM

Cc1ccc([N+](=O)[O-])cc1S(=O)(=O)N(C)N=Cc1cccc2ccccc12
IC50 (PIK3CA (human) [6]): > 20000 nM
IC50 (PIK3CA (human) [7]): > 20000 nM

CS(=O)(=O)Nc1ccc(-c2c(F)cnc3[nH]c4cnc(-c5cccnc5)cc4c23)cc1
IC50 [8]: 100 to 1000 nM

Cc1cc(NC(=O)Nc2ccc(-c3nc(CS(C)(=O)=O)cc(N4CCOCC4)n3)cc2)no1
IC50 [9]: 57800 nM and 91200 nM

CCN(c1ccc(N2CCOCC2)cc1)c1ncnc2nc(Nc3ccc(S(N)(=O)=O)cc3)sc12
IC50 (EGFR (human) [10]): 10100 nM

COCCOc1cc2ncnc(NC3=CC(=O)C(OCc4ccccc4)=CC3=O)c2cc1OC
inhibition (EGFR (human) [3]): -30%

Cc1nc2c(NC(C)(C)C)nc(Nc3ccc4ncsc4c3)nc2[nH]1
inhibition (EGFR (human) [11]): < 50%

Cc1ccc([N+](=O)[O-])cc1S(=O)(=O)N(C)N=Cc1csc2ccccc12
IC50 (PIK3CA (human) [6]): > 20000 nM
IC50 (PIK3CA (human) [7]): > 20000 nM

O=S(=O)(CCc1cccc(C(F)(F)F)c1)Cc1cc(N2CCOCC2)nc(-c2ccccn2)n1
IC50 [9]: 6800 nM

O=C(CO)N1CCC(c2[nH]nc(-c3ccc(Cl)cc3)c2-c2ccncn2)CC1
IC50 (EGFR (human) [12]): 101 nM

CCOc1cc2ncc(C#N)c(Nc3ccc(OCc4ccccn4)c(Cl)c3)c2cc1NC(=O)/C=C/[C@@H]1CCCN1
IC50 (EGFR (human) [13]): 3 nM

Cc1cc2c(F)c(Nc3ncnc4cc(OCCCN5CCCC5)c(OCCCCCC(=O)NO)cc34)ccc2[nH]1
IC50 (EGFR (human) [14]): ≤ 100 nM

O=[N+]([O-])c1ccc2ncnc(Nc3cccc(Br)c3)c2c1
IC50 (EGFR [15]): 900 nM

c1ccc(CCNc2nc(-c3ccc4cc[nH]c4c3)cc(N3CCOCC3)n2)nc1
IC50 (PIK3CA (human) [16]): 8900 nM
GI50 (PIK3CA (human) [17]): 3600 nM

C=C(CN1CCOCC1)C(=O)Nc1ccc2ncnc(Nc3cccc(Br)c3)c2c1
IC50 (EGFR (human) [18]): 128 nM

CS(=O)(=O)Nc1cccc(-c2cc(OCc3ccccn3)nc(N3CCOCC3)n2)c1
IC50 (PIK3CA (human) [16]): > 10000 nM
GI50 (PIK3CA (human) [17]): 16000 nM

Cc1ncnc(Nc2ccc(OCc3cccc(F)c3)c(Cl)c2)c1-c1ccc(CNC(C)C)cc1
IC50 (EGFR (human) [19]): 24 nM

O=S(=O)(CCNCCCc1ccc(-c2ccc3ncnc(Nc4ccc(OCc5ccccc5)c(Cl)c4)c3c2)o1)c1ccccc1
IC50 (EGFR (human) [20]): 50 nM

C=C=CCCCCCOc1cc2c(Nc3ccc(F)c(Cl)c3)ncnc2cc1OC
GI50 (EGFR (human) [21]): 586 nM
IC50 (EGFR (human) [22]): 4.45 nM

COc1cc2ncnc(Nc3ccc4occc4c3)c2cc1OCCCCCCC(=O)NO
IC50 (EGFR (human) [14]): ≤ 100 nM

CC(C)(C)Nc1nc(Nc2ccc3ncsc3c2)nc2[nH]cnc12
inhibition (EGFR (human) [11]): 65 to 80%

CS(=O)(=O)Cc1cc(N2CCOCC2)nc(-c2ccc(NS(C)(=O)=O)cc2)n1
IC50 [9]: 54000 nM

CN(C)CC(=O)N1CCC(Oc2ccc3ncnc(Nc4ccc(OCc5cnccn5)c(Cl)c4)c3c2)CC1
IC50 (EGFR [5]): 21 nM

FC(F)(F)c1cccc(Nc2ncnc3ccccc23)c1
IC50 (EGFR [15]): 577 nM

COc1cc2ncnc(Nc3cccc(Cl)c3)c2cc1OC
IC50 (EGFR (murine)): < 15 nM
LD50 (EGFR (Balb/c mice)): > 200 mg/kg
GI50 (EGFR (human) [21]): 302 nM

Cc1cccnc1-c1nc2c(Cl)cccc2cc1CNc1ncnc2[nH]cnc12
IC50 [23]: 79 nM

CCOc1cc2ncc(C#N)c(Nc3ccc(OCc4ccccn4)c(Cl)c3)c2cc1NC(=O)/C=C/[C@@H]1C[C@@H](O)CN1C
IC50 (EGFR (human) [13]): 36 nM

CN(c1ccc(N2CCOCC2)cc1)c1ncnc2nc(Nc3ccc(S(N)(=O)=O)cc3)sc12
IC50 (EGFR (human) [10]): 3300 nM

COc1cc(OC)cc(-c2cc3cnc(NCCCN4CCN(C)CC4)nc3nc2NC(=O)NC(C)(C)C)c1
IC50 (EGFR [24]): > 50000 nM
